Laboratory results: patent publication US20020010158A1, “Cardioprotective phosphonates and malonates” (priority 2000, published 2002)

Legend:
Format in all cases: in vivo, rat
[1] = test system: coronary artery ligated rats (cardiac hypertrophy); assay: Cardiac hypertrophy after coronary artery ligation; conditions: rats 21 days after coronary ligation, 10 mg/kg daily by gastric tube
Method: (§1) Myocardial infarction was produced in male Sprague-Dawley rats (300-400 g) by occlusion of the left coronary artery. The rats were housed in clear cages in a temperature (19-22° C.) and humidity (50-55% RH) controlled room on a 12 hour light-dark cycle. Food and water were supplied ad libitum. Rats were anaesthized with 1-5% isoflurane in 100% O2 (2 L/minute flow rate). The skin was incised along the left sternal border and the 4th rib was cut proximal to the sternum and a retractor was inserted. The pericardial sac was opened and the heart externalized. The left anterior descending coronary artery was ligated approximately 2 mm from its origin on the aorta using a 6-0 silk suture. The heart was then repositioned in the chest and the incision closed via purse-string sutures. Sham-operated rats underwent identical treatment except that the artery was not ligated. Mortality due to surgery was less than 1%. All animals were allowed to recover, receiving food and water ad libitum for 21 days. Hemodynamic and histological assessments were made.
(§2) Rats were divided at random into five groups: sham operated, coronary artery ligated (untreated), coronary artery ligated (pyridoxal-5′-phosphate (P5P) treatment), coronary artery ligated (compound VII treated) and coronary artery ligated (compound XI treated). Treatment with P5P, compound VII and compound XI began 1 hour after coronary occlusion (or sham operation), and continued for 21 days. P5P, compound VII or compound XI (10 mg/kg) were administered daily (9 AM) by gastric tube. This dosage was chosen based on previous experience with P5P.
Hypertrophy is a physiological condition of enlargement (increased mass) due to increased stress. Cardiac hypertrophy is assessed by calculating the heart to body mass ratio.

[2] = test system: coronary artery ligated rats (myocardial infarction); assay: Coronary artery ligation, mortality; conditions: male Sprague-Dawley rats, 10 mg/kg daily by gastric tube from 1 hour after occlusion
Method: as §1, with “made. […]” for “made.”
as §2
Mortality in all groups occurred only within the first 24 h after coronary ligation. While in the untreated group 50% of the rats died, the mortality rate dropped to 17-25% in the treated groups (Table I).

[3] = test system: coronary artery ligated rats (left ventricle hemodynamics); assay: Hemodynamic changes after coronary artery ligation; conditions: rats 21 days after coronary ligation; 10 mg/kg daily by gastric tube; mean±SD
Method: as §1, with “Sham-operated rats underwent identical treatment except that the artery was not ligated. Mortality due to surgery was less than 1%. All animals were allowed to recover, receiving food and water ad libitum for 21 days. Hemodynamic and histological assessments were made.” left out
The animals prepared as described in Example 29 were anaesthetized with an injected cocktail of ketamine hydrochloirde (60 mg/kg) and xylazine (10 mg/kg). […] The catheter was secured with a silk ligature around the artery, and various hemodynamic parameters including left ventricular systolic pressure (LVSP), left ventricular end diastolic pressure (LVEDP), rate of contraction (+dP/dt), and rate of relaxation (−dP/dt), were recorded and calculated with Acknowledge 3.1 software (Biopac Systems Inc.). The animals were allowed 5-10 minutes to stabilize, after which parameters were measured as averages over three readings.

| SMILES | Cardiac Hypertophy, Heart Weight/Body Weight [1] | Mortality (%) [2] [%] | Total dead Rats [2] | Dead Rats 12 hr [2] | Dead Rats 24 hr [2] | Dead Rats 36 hr [2] | Dead Rats 48 hr [2] | Dead Rats 3 days [2] | LVSP (left ventricular systolic pressure) [3] |
| --- | --- | --- | --- | --- | --- | --- | --- | --- | --- |
| Cc1ncc(C(F)P(=O)(O)O)c(CO)c1O (stereo not drawn) [MC-5422, (3-hydroxy-4-hydroxymethyl-2-methyl-5-pyridyl)fluoromethyl phosphonic Acid] | 0.0032 ± 0.0002 |  |  |  |  |  |  |  |  |
| Cc1ncc(C(O)P(=O)(O)O)c(CO)c1O (stereo not drawn) [MC-5723, (3-hydroxy-4-hydroxymethyl-2-methyl-5-pyridyl)hydroxymethyl phosphonic Acid] | 0.0031 ± 0.0004 |  |  |  |  |  |  |  |  |
| Cc1ncc(COP(=O)(O)O)c(C=O)c1O [P5P, pyridoxal-5′-phosphate, reference compound] |  | 17 | 2 | 1 | 1 | 0 | 0 | 0 | 120.0 ± 10.6 |
| Cc1ncc(C(O)P(=O)(O)O)c(CO)c1O (stereo not drawn) [compound VII, (3-hydroxy-4-hydroxymethyl-2-methyl-5-pyridyl)hydroxymethyl phosphonic Acid] | significant decrease in cardiac hypertrophy | 21 | 3 | 2 | 1 | 0 | 0 | 0 |  |
| Cc1ncc(C(F)P(=O)(O)O)c(CO)c1O (stereo not drawn) [compound XI, (3-hydroxy-4-hydroxymethyl-2-methyl-5-pyridyl)fluoromethyl phosphonic Acid] | significant decrease in cardiac hypertrophy | 25 | 3 | 3 | 0 | 0 | 0 | 0 | 115.0 ± 12.1 |
